Source: patent US8383619B2, “Pharmaceutical compounds” (Astex Therapeutics Limited, priority 2008, dated 2013)

Key:
[1] = Mouse pharmacokinetics, oral gavage; format: in vivo, Balb/c mice; conditions: compared with examples 16 and 11
Procedure: Balb/c mice are dosed with a prodrug by oral gavage. A single administration of one of the 24 examples is given and a dose volume of 10 mL/kg is used for PO doses.
Blood samples are collected in lithium heparin coated tubes at selected time points.
Plasma is isolated by centrifugation and frozen before analysis.
Plasma samples are prepared by liquid-liquid extraction with Acetonitrile containing internal standard. Quantification is by comparison with a standard calibration line constructed with each compound and using a LC-MS/MS method specific to each compound. Animals that had been dosed one of the 24 examples were analysed for prodrug and compound X (2,4-dihydroxy-5-isopropyl-phenyl)-[5-(4-methyl-piperazin-1-ylmethyl)-1,3-dihydro-isoindol-2-yl]-methanone). Pharmacokinetics parameters are calculated using WinNonLin® non compartmental analysis software.
The plasma AUC0.25-2 hrs after PO administration of selected examples are set out in the table below. For examples 16, 17 and 11, plasma AUC0.25-2 hrs was determined following a single dose of 120 μmoles/kg or 240 μmoles/kg.

Whole blood stability = format: in vitro ADME; conditions: 1 μM, 37° C., 120 mins
Description: (§1) The breakdown of a prodrug in vivo could occur in one or more of several different compartments including for example, but not limited to blood/plasma, liver, stomach, target tissue (e.g. tumour). The preferred location for optimum formation of the parent drug will depend on the disposition in vivo of the pro-drug and parent and an understanding of the optimum concentrations of each required in the circulation to maximise exposure to the active moiety in the target tissue. The potential for pro-drug molecules to deliver the active parent drug may be assessed in vitro by measuring the breakdown of a pro-drug in the presence of relevant body fluids. For the purpose of gaining a preliminary understanding of the stability of compounds of the invention to enzymatic hydrolysis in two such bodily compartments, compound turnover has been studied following incubation in whole blood and liver homogenate from mice and humans. The data obtained from these studies provide a preliminary understanding of which of the prodrugs are better able to deliver parent compound (i.e. are more rapidly broken down to parent compound) in these compartments. Further studies could also determine stability in other compartments (e.g. in the target tumours by measuring stability in tumour lysates).
For these studies, human whole blood was collected from 3 male healthy volunteers in lithium heparin tubes. The blood was pooled and stored at room temperature for a maximum of 2 hours prior to initiation of incubations. Mouse blood was collected from 70 male mice, strain: Balb/c into lithium heparin tubes and pooled.
(§2) Each incubation consisted of a volume of 1 mL. Test compound dosing solutions were then spiked into each homogenate at a final compound concentration of 1 μM. Incubations were performed in the atmosphere in a shaking water bath at 37° C.
(§3) An aliquot of incubation samples was removed into an equal volume of ice-cold acetonitrile at various time points. Samples (whole blood/homogenate+acetonitrile) were centrifuged and aliquots of the supernatant were analysed by HPLC-MS/MS.
(§4) The compound X (2,4-dihydroxy-5-isopropyl-phenyl)-[5-(4-methyl-piperazin-1-ylmethyl)-1,3-dihydro-isoindol-2-yl]-methanone) and the compounds of Examples 1 to 24 were incubated in both whole blood and liver homogenate by Quotient Bioresearch (Rushden, UK). The percentage remaining of parent compound following incubation in whole blood/liver homogenate from human and mouse are set out in the table below.

[2] = Liver homogenate stability; format: in vitro ADME; conditions: 1 μM, 37° C., 120 mins
Description: as §1
Mouse livers were obtained from 20 male mice, strain: Balb/c from stock animals. Human liver tissue was obtained from 3 individuals sourced from a UK human tissue bank. The livers were stored frozen. The livers were defrosted and then homogenised to form a homogenate of approximately 30% (w/v) in phosphate buffer, 100 mM, pH 7.4 (referred to as ‘buffer’). Homogenates were kept on ice until use.
as §2, §3, §4

[3] = Tolerability, four consecutive daily doses; format: in vivo, mouse; conditions: four consecutive daily doses at 120 μmoles/kg

## CC(C)c1cc(C(=O)N2Cc3ccc(CN4CCN(C)CC4)cc3C2)c(O)cc1OC(=O)N(C)C [Example 17, dimethyl-carbamic acid 5-hydroxy-2-isopropyl-4-[5-(4-methyl-piperazin-1-ylmethyl)-1,3-dihydro-isoindole-2-carbonyl]-phenyl ester]
[1]
  exposure of the active pharmaceutical agent relative to the starting dose: optimal exposure of the active pharmaceutical agent relative to the starting dose
Whole blood stability
  Percentage remaining Human blood: 90%
  Percentage remaining Mouse blood: 24%
[2]
  Percentage remaining Human Liver: 0%
  Percentage remaining Mouse Liver: 0%
[3]
  tolerability: well tolerated
